Measurements taken from PubChem BioAssay AID330 (DTP/NCI, 2004).
“And” between values parts separate entries of the source, which are not always exact repeats. Equal entries are not always repeated. Toxic doses and inconclusive results are not listed.

Test system: P388 leukemia ip, CD2F1 mice, survival T/C
Assay: NCI In Vivo Anticancer Drug Screen. Data for tumor model P388 Leukemia (intraperitoneal) in CD2F1 (CDF1) mice
Details: endpoint: median survival time, higher = longer survival
Method in brief: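 Mice carrying the transplanted tumor received test compound or vehicle. Survival was recorded in each group, and the value is the treated-group measurement divided by that of the vehicle-treated control group.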

[1] = dose: 100.0 mg/kg/injection, schedule: Q04DX003 (ip), vehicle: saline with Tween-80
[2] = dose: 200.0 mg/kg/injection, schedule: Q04DX003 (ip), vehicle: saline with Tween-80
[3] = dose: 400.0 mg/kg/injection, schedule: Q01DX009 (ip), vehicle: saline with Tween-80
[4] = dose: 60.0 mg/kg/injection, schedule: Q01DX005 (ip), vehicle: saline with Tween-80
[5] = dose: 120.0 mg/kg/injection, schedule: Q01DX005 (ip), vehicle: saline with Tween-80
[6] = dose: 100.0 mg/kg/injection, schedule: Q01DX009 (ip), vehicle: saline
[7] = dose: 200.0 mg/kg/injection, schedule: Q01DX009 (ip), vehicle: saline
[8] = dose: 60.0 mg/kg/injection, schedule: Q01DX005 (ip), vehicle: saline
[9] = dose: 120.0 mg/kg/injection, schedule: Q01DX005 (ip), vehicle: saline
[10] = dose: 240.0 mg/kg/injection, schedule: Q01DX005 (ip), vehicle: saline
[11] = dose: 25.0 mg/kg/injection, schedule: Q01DX005 (ip), vehicle: saline with Tween-80
[12] = dose: 50.0 mg/kg/injection, schedule: Q01DX005 (ip), vehicle: saline with Tween-80
[13] = dose: 100.0 mg/kg/injection, schedule: Q01DX005 (ip), vehicle: saline with Tween-80
[14] = dose: 50.0 mg/kg/injection, schedule: Q01DX009 (ip), vehicle: saline

SMILES: O=C1c2ccccc2CC1(Br)C(Br)c1ccccc1 (configuration not stated)
- T/C (dose: 100.0 mg/kg/injection, schedule: Q01DX009 (ip), vehicle: saline with Tween-80): 109 % of control
- T/C [1]: 96 % of control
- T/C (dose: 200.0 mg/kg/injection, schedule: Q01DX009 (ip), vehicle: saline with Tween-80): 118 % of control
- T/C [2]: 92 % of control
- T/C [3]: 109 % of control
- T/C (dose: 400.0 mg/kg/injection, schedule: Q04DX003 (ip), vehicle: saline with Tween-80): 92 % of control

SMILES: O=C(O)/C(Cl)=C(\Cl)C(=O)Nc1ccc(Br)cc1
- T/C (dose: 15.0 mg/kg/injection, schedule: Q01DX005 (ip), vehicle: saline with Tween-80): 102 % of control
- T/C (dose: 30.0 mg/kg/injection, schedule: Q01DX005 (ip), vehicle: saline with Tween-80): 102 % of control
- T/C [4]: 99 % of control and 111 % of control
- T/C [5]: 104 % of control

SMILES: O=c1[nH]cc(O)c(=O)[nH]1
- T/C (dose: 167.0 mg/kg/injection, schedule: Q01DX009 (ip), vehicle: saline with Tween-80): 95 % of control
- T/C (dose: 267.0 mg/kg/injection, schedule: Q01DX009 (ip), vehicle: saline with Tween-80): 113 % of control
- T/C [3]: 104 % of control
- T/C (dose: 600.0 mg/kg/injection, schedule: Q01DX009 (ip), vehicle: saline with Tween-80): 109 % of control

SMILES: O=CNCO
- T/C (dose: 250.0 mg/kg/injection, schedule: Q01DX005 (ip), vehicle: water): 100 % of control
- T/C (dose: 500.0 mg/kg/injection, schedule: Q01DX005 (ip), vehicle: water): 101 % of control and 103 % of control
- T/C (dose: 1000.0 mg/kg/injection, schedule: Q01DX005 (ip), vehicle: water): 108 % of control and 110 % of control
- T/C (dose: 2000.0 mg/kg/injection, schedule: Q01DX005 (ip), vehicle: water): 114 % of control

SMILES: O=C1C=C(NC(=O)C(F)(F)F)C(=O)c2c1[nH]c(=O)[nH]c2=O
- T/C (dose: 6.25 mg/kg/injection, schedule: Q01DX005 (ip), vehicle: DMSO): 109 % of control
- T/C (dose: 12.5 mg/kg/injection, schedule: Q01DX005 (ip), vehicle: DMSO): 103 % of control
- T/C (dose: 25.0 mg/kg/injection, schedule: Q01DX005 (ip), vehicle: DMSO): 103 % of control
- T/C (dose: 50.0 mg/kg/injection, schedule: Q01DX005 (ip), vehicle: DMSO): 110 % of control
- T/C (dose: 50.0 mg/kg/injection, schedule: Q01DX005 (ip), vehicle: other): 98 % of control
- T/C (dose: 100.0 mg/kg/injection, schedule: Q01DX005 (ip), vehicle: other): 104 % of control
- T/C (dose: 200.0 mg/kg/injection, schedule: Q01DX005 (ip), vehicle: other): 101 % of control

SMILES: CCOc1c(N=Nc2ccccc2)c(C)nn1C(=S)SC
- T/C (dose: 60.0 mg/kg/injection, schedule: Q01DX005 (ip), vehicle: Klucel + Tween-80): 110 % of control
- T/C (dose: 120.0 mg/kg/injection, schedule: Q01DX005 (ip), vehicle: Klucel + Tween-80): 108 % of control
- T/C (dose: 240.0 mg/kg/injection, schedule: Q01DX005 (ip), vehicle: Klucel + Tween-80): 100 % of control

SMILES: CCCCCCCCCCCCCCCCCC1=NC(C)CC(C)(C)O1 (configuration not stated)
- T/C [6]: 95 % of control
- T/C [7]: 104 % of control

SMILES: Cc1nc2[nH]c(=O)[nH]c(=O)c2[nH]1
- T/C [1]: 100 % of control
- T/C [2]: 113 % of control

SMILES: C=CC1OCCC(C)O1 (configuration not stated)
- T/C [8]: 99 % of control
- T/C [9]: 100 % of control
- T/C [10]: 97 % of control

SMILES: O=c1oc(-c2ccccc2I)ns1
- T/C (dose: 100.0 mg/kg/injection, schedule: Q01DX009 (ip), vehicle: Klucel (hydroxypropylcellulose) (HPC)): 113 % of control
- T/C (dose: 200.0 mg/kg/injection, schedule: Q01DX009 (ip), vehicle: Klucel (hydroxypropylcellulose) (HPC)): 114 % of control
- T/C (dose: 400.0 mg/kg/injection, schedule: Q01DX009 (ip), vehicle: Klucel (hydroxypropylcellulose) (HPC)): 96 % of control

SMILES: CC(C)N(/C=C/C(=O)c1ccccc1)C(C)C
- T/C (dose: 12.5 mg/kg/injection, schedule: Q01DX009 (ip), vehicle: saline with Tween-80): 99 % of control
- T/C (dose: 25.0 mg/kg/injection, schedule: Q01DX009 (ip), vehicle: saline with Tween-80): 100 % of control
- T/C (dose: 50.0 mg/kg/injection, schedule: Q01DX009 (ip), vehicle: saline with Tween-80): 94 % of control and 95 % of control

SMILES: C[C@]12CC[C@@H]3c4ccc(O)c(N)c4CC[C@H]3[C@@H]1CC[C@@H]2O
- T/C (dose: 12.5 mg/kg/injection, schedule: Q01DX005 (ip), vehicle: saline with Tween-80): 93 % of control
- T/C [11]: 88 % of control
- T/C [12]: 94 % of control
- T/C [13]: 90 % of control
- T/C (dose: 200.0 mg/kg/injection, schedule: Q01DX005 (ip), vehicle: saline with Tween-80): 90 % of control

SMILES: CCS/C(=C/[P+](c1ccccc1)(c1ccccc1)c1ccccc1)SC
- T/C (dose: 6.25 mg/kg/injection, schedule: Q01DX005 (ip), vehicle: saline with Tween-80): 101 % of control

SMILES: COC(=O)[C@H]1O[C@H]1c1cccc[n+]1[O-]
- T/C (dose: 25.0 mg/kg/injection, schedule: Q01DX005 (ip), vehicle: water): 100 % of control
- T/C (dose: 50.0 mg/kg/injection, schedule: Q01DX005 (ip), vehicle: water): 97 % of control
- T/C (dose: 100.0 mg/kg/injection, schedule: Q01DX005 (ip), vehicle: water): 100 % of control
- T/C (dose: 200.0 mg/kg/injection, schedule: Q01DX005 (ip), vehicle: water): 102 % of control

SMILES: CN1C2=CCCCC2(C)c2ccccc21 (configuration not stated)
- T/C [8]: 105 % of control
- T/C [9]: 115 % of control
- T/C [10]: 118 % of control

SMILES: C#CC1CC2C3CCC4=CC(=O)CCC4(C)C3CCC2(C)C1N(C)C (configuration not stated)
- T/C (dose: 6.25 mg/kg/injection, schedule: Q01DX005 (ip), vehicle: Klucel (hydroxypropylcellulose) (HPC)): 99 % of control
- T/C (dose: 12.5 mg/kg/injection, schedule: Q01DX005 (ip), vehicle: Klucel (hydroxypropylcellulose) (HPC)): 102 % of control
- T/C (dose: 25.0 mg/kg/injection, schedule: Q01DX005 (ip), vehicle: Klucel (hydroxypropylcellulose) (HPC)): 96 % of control

SMILES: CCN(CC)C(=O)C(N)Cc1ccc(OC)c(N(CCCl)CCCl)c1 (configuration not stated)
- T/C (dose: 6.25 mg/kg/injection, schedule: Q01DX009 (ip), vehicle: saline): 113 % of control
- T/C (dose: 6.25 mg/kg/injection, schedule: Q01DX009 (ip), vehicle: suspension in saline): 116 % of control
- T/C (dose: 25.0 mg/kg/injection, schedule: Q01DX009 (ip), vehicle: saline): 150 % of control
- T/C (dose: 25.0 mg/kg/injection, schedule: Q01DX009 (ip), vehicle: suspension in saline): 150 % of control
- T/C [14]: 177 % of control
- T/C (dose: 50.0 mg/kg/injection, schedule: Q01DX009 (ip), vehicle: suspension in saline): 172 % of control

SMILES: C=CCOc1c(C=O)cccc1OC
- T/C [11]: 101 % of control
- T/C [12]: 100 % of control
- T/C [13]: 108 % of control

SMILES: CC1C(=O)C(C)C(c2ccc([N+](=O)[O-])cc2)OC1c1ccccc1 (configuration not stated)
- T/C (dose: 50.0 mg/kg/injection, schedule: Q01DX001 (ip), vehicle: suspension in saline): 96 % of control
- T/C (dose: 100.0 mg/kg/injection, schedule: Q01DX001 (ip), vehicle: suspension in saline): 100 % of control
- T/C (dose: 200.0 mg/kg/injection, schedule: Q01DX001 (ip), vehicle: suspension in saline): 102 % of control

SMILES: CNC(=O)n1cc(Cl)ccc1=O
- T/C [14]: 100 % of control and 108 % of control
- T/C [6]: 100 % of control and 107 % of control
- T/C [7]: 119 % of control

SMILES: Cn1c(=O)c2nc3c(=O)n(C)c(=O)n(C)c3nc2n(C)c1=O
- T/C (dose: 6.25 mg/kg/injection, schedule: Q01DX009 (ip), vehicle: Klucel (hydroxypropylcellulose) (HPC)): 100 % of control and 102 % of control and 118 % of control
- T/C (dose: 12.5 mg/kg/injection, schedule: Q01DX009 (ip), vehicle: Klucel (hydroxypropylcellulose) (HPC)): 101 % of control and 103 % of control and 116 % of control
- T/C (dose: 25.0 mg/kg/injection, schedule: Q01DX009 (ip), vehicle: Klucel (hydroxypropylcellulose) (HPC)): 104 % of control and 120 % of control
- T/C (dose: 50.0 mg/kg/injection, schedule: Q01DX009 (ip), vehicle: Klucel (hydroxypropylcellulose) (HPC)): 111 % of control

SMILES: COC1(OC)C(c2ccccc2)C(C#N)(S(=O)(=O)c2ccccc2)C1(OC)OC (configuration not stated)
- T/C (dose: 60.0 mg/kg/injection, schedule: Q01DX005 (ip), vehicle: Klucel (hydroxypropylcellulose) (HPC)): 100 % of control
- T/C (dose: 120.0 mg/kg/injection, schedule: Q01DX005 (ip), vehicle: Klucel (hydroxypropylcellulose) (HPC)): 98 % of control
- T/C (dose: 240.0 mg/kg/injection, schedule: Q01DX005 (ip), vehicle: Klucel (hydroxypropylcellulose) (HPC)): 100 % of control

SMILES: O=C(CCl)N1CCN(c2ccccn2)CC1
- T/C [4]: 109 % of control
- T/C [5]: 110 % of control
- T/C (dose: 240.0 mg/kg/injection, schedule: Q01DX005 (ip), vehicle: saline with Tween-80): 116 % of control
